{"source": "patent US4005214A", "about": "(Hoffmann-La Roche Inc., priority 1974, dated 1977)", "key": {"[1]": {"assay": "acute toxicity in mice (LD 50)", "format": "in vivo", "conditions": "mouse, in vivo, iv, intravenous administration, read-out: LD 50 (Lethal Dose) i.v."}, "mice": {"system": "mice", "assay": "acute toxicity in mice (LD 50)", "format": "in vivo", "conditions": "for LD 50 (Lethal Dose) s.c.: subcutaneous administration"}, "Escherichia coli": {"system": "Escherichia coli", "assay": "activity (CD 50) against Escherichia coli upon subcutaneous administration to mice", "format": "in vivo"}, "[2]": {"conditions": "pH of about 9; cited from earlier work"}}, "note": "Structures can show the parent of a compound that is named as a salt."}
{"smiles": "CC1(C)S[C@@H]2[C@H](NC(=O)[C@H](N)c3ccc(O)cc3)C(=O)N2[C@H]1C(=O)O", "note": "[X, choline salt of amoxicillin]", "values": [{"measurement": "LD50", "setting": "[1]", "result": "250 to 500", "unit": "mg/kg"}, {"measurement": "LD 50 (Lethal Dose) s.c.", "setting": "mice", "result": "2000 to 4000", "unit": "mg/kg"}, {"measurement": "ED50", "setting": "Escherichia coli; sc, read-out: CD 50 (Curative Dose)", "result": 5.9, "unit": "mg/kg"}]}
{"smiles": "CC1(C)S[C@@H]2[C@H](NC(=O)[C@H](N)c3ccc(O)cc3)C(=O)N2[C@H]1C(=O)O", "note": "[Y, N-methyl-D-glucamine salt of amoxicillin]", "values": [{"measurement": "LD 50 (Lethal Dose) i.v.", "setting": "mice; intravenous administration", "result": "500 to 1000", "unit": "mg/kg"}, {"measurement": "LD 50 (Lethal Dose) s.c.", "setting": "mice", "result": "> 5000", "unit": "mg/kg"}, {"measurement": "CD 50 (Curative Dose)", "setting": "Escherichia coli", "result": 5.0, "unit": "mg/kg"}]}
{"smiles": "CC1(C)S[C@@H]2[C@H](NC(=O)[C@H](N)c3ccc(O)cc3)C(=O)N2[C@H]1C(=O)O", "note": "[Amoxicillin, D-(-)-alpha-amino-parahydroxybenzyl penicillin]", "values": [{"measurement": "stability at high pH", "setting": "[2]", "result": "very unstable"}]}
